Results published in ChEMBL document CHEMBL5724696, “Autophagy assay results for EUbOPEN Chemogenomics Library” (2024).
“And” between values parts separate entries of the source, which are not always exact repeats. Equal entries are not always repeated.

How the values were obtained:
Format in all cases: functional, Homo sapiens
TERT-RPE1 = experiment: (§1) Here: values are normalized to the negative (DMSO; defined as 0% autophagy induction) and positive (250nM Torin1; mTOR inhibitor; defined as maximal inducer of autophagy = 100%) control compounds and represented as % of autophagy induction. […] The impact of autophagy induction on cells is complex and depends on the affected target. As such, the magnitude of a phenotype may not be equally mirrored in the %-value of autophagy induction and vice versa. The dynamics of the induction may indicate the mode of activation: e.g. activation via phosphorylation or a signaling cascade may occur fast, while activation via transcription factors may take considerably longer. […] Of note, treatment concentrations may be sub-optimal for specific compounds, leading to false negative annotations.; conditions: Culturing Media DMEM/F12 (1:1), 1 % Penicillin/Streptomycin, 10% Fetal bovin serum Add-On: No, Screening Media Control DMEM/F12 (1:1), Screening Media Samples DMEM/F12 (1:1)
U2OS [1] = experiment: as §1; conditions: Culturing Media DMEM, 1 % Penicillin/Streptomycin, 10% Fetal bovin serum Add-On: No, Screening Media Control DMEM, Screening Media Samples DMEM
U2OS [2] = experiment: as §1; conditions: Culturing Media DMEM, 1 % Penicillin/Streptomycin, 10% Fetal bovin serum Add-On: No, Screening Media Control DMEM, Screening Media Samples DMEM; remark: listed apart in the source
[3] = Compound Concentration 0.5 uM, Timepoint 12 hours, 12 h, 0.5 µM
[4] = Compound Concentration 0.5 uM, Timepoint 24 hours, 24 h, 0.5 µM
[5] = Compound Concentration 0.5 uM, Timepoint 36 hours, 36 h, 0.5 µM
[6] = Compound Concentration 0.5 uM, Timepoint 60 hours, 60 h, 0.5 µM
[7] = Compound Concentration 2 uM, Timepoint 12 hours, 12 h, 2 µM
[8] = Compound Concentration 2 uM, Timepoint 24 hours, 24 h, 2 µM
[9] = Compound Concentration 2 uM, Timepoint 36 hours, 36 h, 2 µM
[10] = Compound Concentration 2 uM, Timepoint 60 hours, 60 h, 2 µM
[11] = Compound Concentration 0.5 uM, Timepoint 12 hours
[12] = Compound Concentration 0.5 uM, Timepoint 24 hours
[13] = Compound Concentration 0.5 uM, Timepoint 36 hours
[14] = Compound Concentration 0.5 uM, Timepoint 60 hours
[15] = Compound Concentration 2 uM, Timepoint 12 hours
[16] = Compound Concentration 2 uM, Timepoint 24 hours
[17] = Compound Concentration 2 uM, Timepoint 36 hours
[18] = Compound Concentration 2 uM, Timepoint 60 hours
[19] = Compound Concentration 10 uM, Timepoint 12 hours
[20] = Compound Concentration 10 uM, Timepoint 24 hours
[21] = Compound Concentration 10 uM, Timepoint 36 hours
[22] = Compound Concentration 10 uM, Timepoint 60 hours

Cl.Clc1ccc(CCCOCCCN2CCCCC2)cc1 [PITOLISANT HYDROCHLORIDE]
autophagy induction (TERT-RPE1; [3]): -3.0454% and 2.896% | autophagy induction (TERT-RPE1; [4]): -1.513% and 3.003% | autophagy induction (TERT-RPE1; [5]): -3.944% and 2.632% | autophagy induction (TERT-RPE1; [6]): -4.171% and 0.01183% | autophagy induction (TERT-RPE1; [7]): 0.8347% and 2.672% | autophagy induction (TERT-RPE1; [8]): 0.6662% and 3.448% | autophagy induction (TERT-RPE1; [9]): -1.283% and 2.753% | autophagy induction (TERT-RPE1; [10]): -3.185% and 1.301% | autophagy induction (TERT-RPE1; Compound Concentration 10 uM, Timepoint 36 hours, 36 h, 10 µM): -0.5799% and 21.0375% | autophagy induction (U2OS [1]; [11]): 15.5533% | autophagy induction (U2OS [1]; [12]): 6.616% | autophagy induction (U2OS [1]; [13]): -57.7817% | autophagy induction (U2OS [1]; [14]): -0.2681% | autophagy induction (U2OS [1]; [15]): -2.233% | autophagy induction (U2OS [1]; [16]): -2.143% | autophagy induction (U2OS [1]; [17]): -60.8013% | autophagy induction (U2OS [1]; [18]): -1.476% | autophagy induction (U2OS [1]; [19]): 10.0351% | autophagy induction (U2OS [1]; [20]): 1.34% | autophagy induction (U2OS [1]; [21]): -57.6898% | autophagy induction (U2OS [1]; [22]): -1.026% | autophagy induction (U2OS [2]; [11]): 13.8608% | autophagy induction (U2OS [2]; [12]): 9.201% | autophagy induction (U2OS [2]; [13]): 8.758% | autophagy induction (U2OS [2]; [14]): 0.1501% | autophagy induction (U2OS [2]; [15]): -8.536% | autophagy induction (U2OS [2]; [16]): -1.42% | autophagy induction (U2OS [2]; [17]): -3.922% | autophagy induction (U2OS [2]; [18]): -5.605% | autophagy induction (U2OS [2]; [19]): 1.329% | autophagy induction (U2OS [2]; [20]): 3.348% | autophagy induction (U2OS [2]; [21]): 1.993% | autophagy induction (U2OS [2]; [22]): 3.566%

c1cc(CN2CCCNCCNCCCNCC2)ccc1CN1CCCNCCNCCCNCC1 [PLERIXAFOR]
autophagy induction (TERT-RPE1; [3]): -4.475% and 7.798% | autophagy induction (TERT-RPE1; [4]): -3.816% and 9.011% | autophagy induction (TERT-RPE1; [5]): -5.185% and 14.9232% | autophagy induction (TERT-RPE1; [6]): -8.266% and 14.0932% | autophagy induction (TERT-RPE1; [7]): -1.002% and 11.2768% | autophagy induction (TERT-RPE1; [8]): -1.015% and 15.5767% | autophagy induction (TERT-RPE1; [9]): -0.9806% and 19.0771% | autophagy induction (TERT-RPE1; [10]): -1.796% and 21.8048% | autophagy induction (TERT-RPE1; Compound Concentration 10 uM, Timepoint 12 hours, 12 h, 10 µM): -0.2124% and 10.1362% | autophagy induction (U2OS [1]; [11]): 1.944% | autophagy induction (U2OS [1]; [12]): -0.47% | autophagy induction (U2OS [1]; [13]): 1403.21% | autophagy induction (U2OS [1]; [14]): -0.2952% | autophagy induction (U2OS [1]; [15]): -1.895% | autophagy induction (U2OS [1]; [16]): -4.5042% | autophagy induction (U2OS [1]; [17]): -61.4276% | autophagy induction (U2OS [1]; [18]): -2.96% | autophagy induction (U2OS [1]; [19]): -9.041% | autophagy induction (U2OS [1]; [20]): -7.066% | autophagy induction (U2OS [1]; [21]): -62.672% | autophagy induction (U2OS [1]; [22]): -3.919% | autophagy induction (U2OS [2]; [11]): 9.361% | autophagy induction (U2OS [2]; [12]): 4.086% | autophagy induction (U2OS [2]; [13]): 3.942% | autophagy induction (U2OS [2]; [14]): -10.4654% | autophagy induction (U2OS [2]; [15]): -10.5746% | autophagy induction (U2OS [2]; [16]): -17.2139% | autophagy induction (U2OS [2]; [17]): -19.8311% | autophagy induction (U2OS [2]; [18]): -28.2789% | autophagy induction (U2OS [2]; [19]): -19.8514% | autophagy induction (U2OS [2]; [20]): -21.1534% | autophagy induction (U2OS [2]; [21]): -25.1466% | autophagy induction (U2OS [2]; [22]): -33.2742%
